The nature of this data set: Solubility of codeine in water.

In the case of `COc1ccc2c3c1O[C@H]1[C@@H](O)C=C[C@H]4[C@@H](C2)N(C)CC[C@@]341` [Codeine, codeine], the “concentration above which codeine is not fully soluble in water” value is recorded as at most 30 grams/liter.
